Values after ≈ are worked out from the molar mass of the structure shown. Active and inactive are the calls of the source. No cut-off for these calls is given here.
Assays:
[1] = Apparent permeability across basolateral to apical side in human Caco-2 cells at 2 uM incubated for 2 hrs by LC-MS/MS analysis; format: ADME, cell-based; conditions: for Papp B→A at 2 h, 2 µM: Caco-2; for Papp: caco-2, 2 h, 2 µM
U-87 MG [2] = assay: Antiproliferative activity against human U87 cells assessed as inhibition of cell growth incubated for 24 hrs by CCK-8 assay; format: functional, cell-based, U-87MG ATCC
[3] = Apparent permeability across apical to basolateral side in human Caco-2 cells at 2 uM incubated for 2 hrs by LC-MS/MS analysis; format: ADME, cell-based; conditions: for Papp A→B at 2 h, 2 µM: Caco-2; for Papp: caco-2, 2 h, 2 µM
MCF7 = assay: Antiproliferative activity against human MCF7 cells assessed as inhibition of cell growth incubated for 24 hrs by CCK-8 assay; format: functional, cell-based; conditions: MCF7, 24 h
HCT-116 = assay: Antiproliferative activity against human HCT-116 cells assessed as inhibition of cell growth incubated for 24 hrs by CCK-8 assay; format: functional, cell-based; conditions: HCT-116, 24 h
[4] = Efflux ratio of apparent permeability from basolateral to apical side over apical to basolateral side in human Caco-2 cells at 2 uM incubated for 2 hr by LC-MS/MS analysis; format: ADME, cell-based; conditions: for efflux ratio at 2 h, 2 µM: Caco-2; for Ratio: caco-2, 2 h, 2 µM
[5] = Metabolic stability in liver microsomes (unknown origin) assessed as half life incubated for 60 mins by LC-MS/MS analysis; format: ADME, Microsome
[6] = Kinetic solubility in PBS at pH 7.4 incubated under shaking condition for 24 hrs by LC-MS/MS analysis; format: physicochemical; conditions: read-out: Kinetic_solubility
U-87 MG [7] = assay: Induction of cell cycle arrest in human U87 cells assessed as increase in number of cells at S phase at 80 uM incubated for 24 hrs by RNase/PI staining based flow cytometry; format: functional; conditions: U-87MG ATCC
U-87 MG [8] = assay: Induction of apoptosis in human U87 cells assessed as increase in number of apoptotic cells at 80 uM incubated for 24 hrs by Annexin V-FITC/PI staining based flow cytometry; format: functional, cell-based; conditions: U-87MG ATCC
KYSE-150 cell line = assay: Antiproliferative activity against human KYSE-150 cell line assessed as inhibition of cell growth incubated for 24 hrs by CCK-8 assay; format: functional, cell-based; conditions: KYSE-150, 24 h
U-87 MG [9] = assay: Induction of cell cycle arrest in human U87 cells assessed as decrease in number of cells at G2 phase at 80 uM incubated for 24 hrs by RNase/PI staining based flow cytometry; format: functional; conditions: U-87MG ATCC
U-87 MG [10] = assay: Induction of cell cycle arrest in human U87 cells assessed as decrease in number of cells at G1 phase at 80 uM incubated for 24 hrs by RNase/PI staining based flow cytometry; format: functional; conditions: U-87MG ATCC
U-87 MG [11] = assay: Inhibition of cell migration in human U87 cells at 80 uM incubated for 48 hrs by scratch assay; format: functional, cell-based; conditions: U-87MG ATCC
U-87 MG [12] = assay: Induction of apoptosis in human U87 cells at 80 uM incubated for 24 hrs by Annexin V-FITC/PI staining based flow cytometry; format: functional
[13] = Metabolic stability in liver microsomes (unknown origin) assessed as compound remaining incubated for 60 mins by LC-MS/MS analysis; format: ADME, Microsome; conditions: read-out: Stability
U-87 MG [14] = assay: Induction of cell cycle arrest in human U87 cells assessed as decrease in number of cells at S phase at 80 uM incubated for 24 hrs by RNase/PI staining based flow cytometry; format: functional; conditions: U-87MG ATCC
U-87 MG [15] = assay: Induction of cell cycle arrest in human U87 cells assessed as increase in number of cells at G1 phase at 80 uM incubated for 24 hrs by RNase/PI staining based flow cytometry; format: functional; conditions: U-87MG ATCC
U-87 MG [16] = assay: Induction of cell cycle arrest in human U87 cells assessed as increase in number of cells at G2 phase at 80 uM incubated for 24 hrs by RNase/PI staining based flow cytometry; format: functional; conditions: U-87MG ATCC

SMILES | Papp B→A at 2 h, 2 µM [1] [×10⁻⁶ cm/s] | IC50 (U-87 MG [2]) [µM] | Papp A→B at 2 h, 2 µM [3] [×10⁻⁶ cm/s] | IC50 (MCF7) [µM] | IC50 (HCT-116) [µM] | efflux ratio at 2 h, 2 µM [4] | half-life [5] [min] | solubility kinetic at 24 h [6] [µM] | Activity (U-87 MG [7]) | Activity (U-87 MG [8]) | IC50 (KYSE-150 cell line) [µM] | Activity (U-87 MG [9]) | Activity (U-87 MG [10]) | inhibition (U-87 MG [11]) | remaining at 1 h [13] [%] | further results
CC(C)[C@@H]1CC[C@@H](C)C[C@H]1OC(=O)c1ccc([N+](=O)[O-])cc1 | 11.2 | 92.7 | 24 | 907 | 649 | 0.48 | 25.2 | 0.61 (≈ 0.186 µg/mL) | inactive | Active; Significantly Increased Activity Observed | > 3130 | inactive | inactive | Active | 32.6 | Activity (U-87 MG [12]; U-87MG ATCC): Active
COCCc1ccc(OCC(O)CNC(C)C)cc1 (stereo not drawn) [METOPROLOL] |  |  | 25.1 |  |  |  |  |  |  |  |  |  |  |  |  | 
CC(C)(C)NCC(O)COc1cccc2c1CC(O)C(O)C2 (stereo not drawn) [NADOLOL] |  |  | 0.04 |  |  |  |  |  |  |  |  |  |  |  |  | 
CC(C)[C@H]1CC[C@@H](C)C[C@H]1N | 24.7 | 224 | 41.8 | 3510 | 848 | 0.59 | > 145 | 147 (≈ 22.8 µg/mL) | Active | Active; Significantly Increased Activity Observed | 4240 | Active | Active | Active | 79.4 | Activity (U-87 MG [12]): 90%
CC(C)[C@@H]1CC[C@@H](C)C[C@H]1O [LEVOMENTHOL] |  | 198 |  | 1250 | 771 |  |  |  | inactive | inactive | 784 | inactive | inactive | Active |  | 
C[C@H]1O[C@@H](O[C@H]2[C@@H](O)C[C@H](O[C@H]3[C@@H](O)C[C@H](O[C@H]4CC[C@@]5(C)[C@H](CC[C@@H]6[C@@H]5C[C@@H](O)[C@]5(C)[C@@H](C7=CC(=O)OC7)CC[C@]65O)C4)O[C@@H]3C)O[C@@H]2C)C[C@H](O)[C@@H]1O [DIGOXIN] | 18.6 |  | 0.15 |  |  | 127 |  |  |  |  |  |  |  |  |  | 
O=C(O)Cc1ccccc1Nc1c(Cl)cccc1Cl [DICLOFENAC] |  |  |  |  |  |  | 5.32 |  |  |  |  |  |  |  | 97.8 | 
CC(C)[C@H]1CC[C@H](C)C[C@@H]1N | 23.5 | 3210 | 46 | 6450 | 6450 | 0.53 | > 145 | 146 (≈ 22.6 µg/mL) | inactive | Active; Significantly Increased Activity Observed | 6450 | inactive | inactive | Active | 79.4 | Activity (U-87 MG [12]): 90%
CC(C)[C@H]1CC[C@H](C)C[C@H]1N |  | 317 |  | > 1260 | 630 |  | > 145 | 0.625 (≈ 0.0971 µg/mL) |  | Active; Significantly Increased Activity Observed | > 3280 |  |  | Active | 81.8 | Papp [1]: 22.23 10^-6 cm/s; Papp [3]: 23.47 10^-6 cm/s; Ratio [4]: 0.55; Activity (U-87 MG [14]): Active; Activity (U-87 MG [15]): Active; Activity (U-87 MG [16]): Active; Activity (U-87 MG [12]; U-87MG ATCC): Active
CC(C)[C@H]1CC[C@@H](C)C[C@@H]1N |  | 1740 |  | > 6450 | > 318 |  | > 145 | 150 (≈ 23.3 µg/mL) |  | Active; Significantly Increased Activity Observed | > 6450 |  |  | Active | 75.4 | Papp [1]: 23.22 10^-6 cm/s; Papp [3]: 40.16 10^-6 cm/s; Ratio [4]: 0.5; Activity (U-87 MG [14]): Active; Activity (U-87 MG [15]): Active; Activity (U-87 MG [16]): Active; Activity (U-87 MG [12]; U-87MG ATCC): Active
CC(C)[C@@H]1CC[C@@H](C)C[C@@H]1OC(=O)c1ccc([N+](=O)[O-])cc1 | 12.1 | 109 | 24.4 | 2670 | 787 | 0.51 | 25 | 0.031 (≈ 0.00947 µg/mL) | inactive | Active; Significantly Increased Activity Observed | 3510 | inactive | inactive | Active | 33.3 | Activity (U-87 MG [12]; U-87MG ATCC): Active
Cn1nnc2c(C(N)=O)ncn2c1=O [TEMOZOLOMIDE] |  | 1500 |  |  |  |  |  |  |  |  |  |  |  |  |  | 
CC(C)[C@H]1CC[C@H](C)C[C@@H]1O [RACEMENTHOL] |  | 679 |  | 3680 | 1140 |  |  |  | inactive | inactive | 3650 | inactive | inactive | Active |  | 
C[C@]12CC[C@H]3[C@@H](CCC4=CC(=O)CC[C@@]43C)[C@@H]1CC[C@@H]2O [TESTOSTERONE] |  |  |  |  |  |  |  |  |  |  |  |  |  |  | 91 | 

Source: ChEMBL document CHEMBL6078673, “Synthesis and anti-tumor activity of menthylamine derivatives: Focusing on the potent inhibitory effect of compound W8 on glioma growth” (Bioorg Med Chem, 2025)
